Laboratory results reported in patent EP1093379B1, “USE OF INHIBITORS OF PROTEIN KINASE C EPSILON TO TREAT PAIN” (The Regents of the University of California, priority 1998, dated 2007).
Read-outs that look alike come from different tables or passages of the source.

Tests used:
[1] = system: vincristine-induced hyperalgesia; test: Vincristine-induced hyperalgesia model, mechanical stimuli (Ugo Basile analgesymeter); type: in vivo, rat; conditions: vincristine 100 µg/kg intravenously daily; after the second day
Experimental: (§1) Humans undergoing chemotherapy frequently experience hyperalgesia. Vincristine is a chemotherapeutic drug known to cause such hyperalgesia, and a rat model of vincristine-induced hyperalgesia was established as follows. Vincristine (100 µg/kg in saline; Sigma Chemical Catalog) was administered intravenously daily to each of 32 rats over a period of two weeks.
To determine whether administration of an inhibitor of PKCε would lessen vincristine-induced hyperalgesia in the rat model described above, on the 13th day of vincristine treatment, rats received no treatment (n= 16) or intradermal injections of sterile water followed by intradermal injections of either 1µg εV1-2, a PKCε inhibitory peptide (n=8; labeled "PKCεI" on Figure 12A), or 1µg S-VεV1-2, a scrambled version of the εV1-2 peptide (n=8; labeled "PCKεI SCR" on Figure 12A), 20-30 minutes before administration of a mechanical stimulus.

[2] = Rotorod analysis of motor deficits; type: in vivo, rat; conditions: vincristine 100 µg/kg intravenously daily
Experimental: as §1

[3] = system: epinephrine-induced hyperalgesia; test: Epinephrine-induced mechanical hyperalgesia, paw-withdrawal threshold (Ugo Basile analgesymeter); type: in vivo, rat; conditions: for effect on epinephrine-induced hyperalgesia: intradermal, rat hindpaw, inhibitors 1 µg (WIPTIDE 100 ng) 15 minutes prior to epinephrine, DAMGO co-injected, antagonist doses not given; for Percentage decrease in nociceptive threshold in response to epinephrine: epinephrine 100 ng alone or with DAMGO, SQ22536, BIM, Rp-cAMPs (all 1 µg) or WIPTIDE (0.1 µg), large value = more hyperalgesia
Experimental: (§2) The roles of PKC, protein kinase A ("PKA") and the µ-opioid receptor in mediating epinephrine-induced hyperalgesia were assessed by measuring the effects of: Rp-adenosine 3', 5'-cyclic monophosphate ("Rp-cAMPs") and WIPTIDE, both inhibitors of PKA; SQ22536, an inhibitor of adenylyl cyclase, an enzyme activated by PKA; bisindolymaleimide ("BIM"), a nonselective inhibitor of PKC isozymes; and [D-Ala^2,N-Me-Phe^4,Gly^5-ol]-enkephalin ("DAMGO"), p-opioid receptor agonist. The dose for each inhibitor was 1µg, except for WIPTIDE, which was administered in a 100ng dose. […] A large numeric value means more hyperalgesia.

TTX-RINa = type: cell-based, rat; conditions: for effect on epinephrine-induced potentiation of TTX-RINa: 2µM propranolol, 5µM phentolamine, 100µM Rp-cAMPs, 100µM BIM
[4] = system: PGE2-induced hyperalgesia; conditions: cited from earlier work; for Percentage decrease in nociceptive threshold in response to PGE2: PGE2 100 ng alone or with DAMGO, SQ22536, Rp-cAMPs (1 µg), data from Khasar 1995 / Taiwo and Levine 1991
basal paw threshold = conditions: similar dose of phentolamine, normal rat; earlier studies; cited from earlier work
[5] = system: formalin-induced hyperalgesia; conditions: similar dose of phentolamine; earlier studies; cited from earlier work
[6] = system: epinephrine-induced hyperalgesia; test: Epinephrine-induced mechanical hyperalgesia, paw-withdrawal threshold (Ugo Basile analgesymeter); type: in vivo, rat
[7] = system: PGE2-induced hyperalgesia; test: PGE2-induced mechanical hyperalgesia, paw-withdrawal threshold; type: in vivo, rat
Experimental: The roles of PKC, protein kinase A ("PKA") and the µ-opioid receptor in mediating epinephrine-induced hyperalgesia were assessed by measuring the effects of: Rp-adenosine 3', 5'-cyclic monophosphate ("Rp-cAMPs") and WIPTIDE, both inhibitors of PKA; SQ22536, an inhibitor of adenylyl cyclase, an enzyme activated by PKA; bisindolymaleimide ("BIM"), a nonselective inhibitor of PKC isozymes; and [D-Ala^2,N-Me-Phe^4,Gly^5-ol]-enkephalin ("DAMGO"), p-opioid receptor agonist. The dose for each inhibitor was 1µg, except for WIPTIDE, which was administered in a 100ng dose. DAMGO was co-injected with epinephrine whereas the other inhibitors were applied 15 minutes prior to epinephrine injection. […] TABLE 1: Percentage decrease in nociceptive threshold in response to epinephrine, PGE2 or isoproterenol (each 100 ng) and effects of DAMGO, SQ22536, BIM, Rp-cAMPs (all 1 µg) or WIPTIDE (0.1 µg). A large numeric value means more hyperalgesia.
For mechanical nociceptive testing, the nociceptive flexion reflex was quantified using an Ugo Basile analgesymeter that applies a constantly increasing force measured in grams (Stoelting, Chicago, IL; K. O. Aley, J. D. Levine, J. Neurosci. 17, 8018-23 (1997)). The mean basal mechanical threshold for rats used in these experiments was 105.3+/-2.8 grams. The effects of hyperalgesia-inducing agents epinephrine (100ng) and PGE2 (100ng) on mechanical nociceptive thresholds were determined by measuring paw withdrawal frequencies at 15, 20, and 25 minutes after administration of the hyperalgesic agent and then calculating the mean of these three readings.

[8] = system: isoproterenol-induced hyperalgesia; test: Isoproterenol-induced mechanical hyperalgesia, paw-withdrawal threshold; type: in vivo, rat; conditions: for effect on isoproterenol-induced hyperalgesia: intradermal, BIM 1 µg, WIPTIDE 100 ng, propranolol dose not given
Experimental: To examine the role of β-AR in epinephrine-induced hyperalgesia, propranolol, a β-AR antagonist, and isoproterenol, a selective β-AR agonist, were administered by intradermal injection.
as §2

[9] = system: mechanical nociceptive threshold; test: von Frey hair paw-withdrawal frequency in wild-type mice; type: in vivo; conditions: 100ng by intraplantar injection prior to VFH stimulation (4, 6.9 or 14.8 grams)
Experimental: Mechanical, thermal and chemical nociception were evaluated in wild-type and PKCε-mutant mice.

[10] = system: prolonged PGE2-induced hyperalgesia; test: Chronic inflammatory pain model: prolonged hyperalgesia in carrageenan-sensitized rats (Randall-Selitto paw-withdrawal test); type: in vivo; conditions: for duration of hyperalgesia in untreated rats: rats that have not received carrageenan injections; for duration of hyperalgesia in carrageenan-sensitized rats: seen up to three weeks after the carrageenan injection
From the text: In order to investigate the role, if any, of PKCε in chronic inflammatory pain, the following model system for chronic inflammatory pain was developed. Rats received intradermal hind paw injections of carrageenan, an inflammatory agent. […] This was considered an acute response to the carrageenan-induced inflammation. Although administration of Prostaglandin E2 ("PGE2"), 5-hydroxytryptamine ("5-HT," serotonin) or CGS-21680 (an adenosine A2-selective receptor agonist) normally causes untreated rats (that is, rats that have not received carrageenan injections) to experience hyperalgesia lasting up to 6 hours, the hyperalgesia experienced by carrageenan-sensitized rats following administration of any one of these substances lasted up to 24 hours.
The prolonged PGE2-induced hyperalgesia normally seen in carrageenan-sensitized rats was inhibited by administration of BIM or εV1-2.
To examine whether protein kinase C modulates the processes by which a brief inflammatory event causes prolonged hyperalgesia many days later, rats received carrageenan and 1µg BIM injections at the same time. Hyperalgesia was measured 72 hours later, when the rats were treated PGE2. […] Therefore, administration of an inhibitor of PKC either at approximately the same time as the inflammatory agent giving rise to chronic, prolonged hyperalgesia or at about the same time as the hyperalgesia-inducing stimulus can lessen such chronic hyperalgesia.

[11] = system: PGE2-induced hyperalgesia; conditions: PGE2 100 ng alone or with DAMGO, SQ22536, Rp-cAMPs (1 µg); data from Khasar 1995 / Taiwo and Levine 1991; cited from earlier work
[12] = system: small diameter DRG neurons
[13] = 1µM epinephrine with 100µM BIM v. epinephrine alone
[14] = after 1µg epinephrine injection

CC[C@]1(O)C[C@H]2CN(CCc3c([nH]c4ccccc34)[C@@](C(=O)OC)(c3cc4c(cc3OC)N(C=O)[C@H]3[C@@](O)(C(=O)OC)[C@H](OC(C)=O)[C@]5(CC)C=CCN6CC[C@]43[C@@H]65)C2)C1 [Vincristine]
mechanical nociceptive thresholds of vincristine-treated rats [1]: acute dose-dependent decrease in mechanical nociceptive thresholds | motor deficits (Rotorod analysis) [2]: did not show any significant motor deficits

Cc1ccc(N(CC2=NCCN2)c2cccc(O)c2)cc1 [phentolamine]
effect on epinephrine-induced hyperalgesia [3]: did not significantly affect | effect on epinephrine-induced potentiation of TTX-RINa (TTX-RINa; 1µM epinephrine): did not | effect on ability of rolipram to prolong PGE2-induced hyperalgesia ([4]; similar dose of phentolamine, earlier studies): inhibited | effect on basal paw threshold (basal paw threshold): no effect | effect on formalin-induced hyperalgesia [5]: significantly reversed

COc1ccc2c(c1)c(CC(=O)O)c(C)n2C(=O)c1ccc(Cl)cc1 [indomethacin]
effect on the ability of epinephrine to induce hyperalgesia ([6]; continuous treatment with 4mg/kg of indomethacin, n=8): Neither indomethacin treatment nor sympathectomy had any effect

WIPTIDE
Percentage decrease in nociceptive threshold in response to epinephrine [3]: 10.9 ± 3.6 % | Percentage decrease in nociceptive threshold in response to PGE2 ([7]; PGE2 100 ng with BIM (1 µg) or WIPTIDE (0.1 µg)): 9.4 ± 3.1 % | effect on PGE2-induced hyperalgesia ([7]; same dose as for epinephrine: BIM 1 µg, WIPTIDE 100 ng): significantly attenuated | effect on isoproterenol-induced hyperalgesia [8]: almost completely abolished | Percentage decrease in nociceptive threshold in response to isoproterenol ([8]; isoproterenol 100 ng alone or with BIM (1 µg) or WIPTIDE (0.1 µg)): 1 ± 2.8 %

CCCCC[C@H](O)/C=C/[C@H]1[C@H](O)CC(=O)[C@@H]1C/C=C\CCCC(=O)O [PGE2, prostaglandin E2]
percent-withdrawal response to VFH stimulus [9]: dramatically increased | duration of hyperalgesia in untreated rats [10]: up to 6 hours | duration of hyperalgesia in carrageenan-sensitized rats [10]: up to 24 hours | Percentage decrease in nociceptive threshold in response to PGE2 [4]: 33.6±1.9%

[D-Ala^2,N-Me-Phe^4,Gly^5-ol]-enkephalin [DAMGO]
Percentage decrease in nociceptive threshold in response to epinephrine [3]: 11.5 ± 3.1 % | Percentage decrease in nociceptive threshold in response to PGE2 [11]: 11.1 ± 4.0 %

CCNC(=O)[C@H]1O[C@@H](n2cnc3c(N)nc(NCCc4ccc(CCC(=O)O)cc4)nc32)[C@H](O)[C@@H]1O [CGS-21680]
duration of hyperalgesia in untreated rats [10]: up to 6 hours | duration of hyperalgesia in carrageenan-sensitized rats [10]: up to 24 hours

CC(C)NCC(O)c1ccc(O)c(O)c1 (centres unmarked) [isoproterenol]
hyperalgesia produced in the absence of epinephrine ([8]; intradermal injection of isoproterenol): dose-dependent hyperalgesia

NCCc1c[nH]c2ccc(O)cc12 [5-HT, 5-hydroxytryptamine]
duration of hyperalgesia in untreated rats [10]: up to 6 hours | duration of hyperalgesia in carrageenan-sensitized rats [10]: up to 24 hours

CNC[C@H](O)c1ccc(O)c(O)c1 [epinephrine]
mean peak current increase (TTX-RINa; [13]): 49% | number of neurons responsive to epinephrine (TTX-RINa; [13]): 8 out of 11 | neurons with an increase in TTX-RINa (TTX-RINa; 1µM epinephrine, 14 out of 21 neurons): 67% | shift of current-voltage plots for activation (TTX-RINa; 1µM epinephrine, hyperpolarized direction): approximately 10 mV | effect on TTX-RINa (TTX-RINa; 1µM epinephrine, isoproterenol application): marked potentiation | percent-withdrawal response to VFH stimulus [9]: dramatically increased | mean resting potentials ([12]; 1µM epinephrine): unaffected | average number of action potentials generated in response to the current ramp-and-plateau ([12]; 1µM epinephrine, five minutes or more after start of perfusion, 1.7±0.2 before, 11 neurons): 5.3±0.9 | neurons showing a decrease in spike latency of at least 50ms ([12]; 1µM epinephrine, 5 of 11 neurons): 45% | neurons showing an increase in spike number ([12]; 1µM epinephrine, nine of 11 neurons): 81% | mean latency from the start of current injection to the peak of the first spike ([12]; following 1µM epinephrine perfusion, 278±42ms without epinephrine, n=11): 189 ± 21 ms | duration of epinephrine-induced hyperalgesia [6, 14]: approximately 2 hours | onset latency of epinephrine-induced hyperalgesia (significant) [6, 14]: 2 min | time to peak effect of hyperalgesia [6, 14]: ≤ 5 min | Percentage decrease in nociceptive threshold in response to epinephrine ([6]; epinephrine 100 ng alone or with DAMGO, SQ22536, BIM, Rp-cAMPs (all 1 µg) or WIPTIDE (0.1 µg), large value = more hyperalgesia): 29.6±2.1% | threshold reduction (mechanical nociceptive threshold) ([6]; epinephrine 100ng only, or sterile water and 1µg scrambled peptide prior to epinephrine, mean of 15, 20, 25 minutes, n=8): 25-30% | threshold at which the rat withdrew the paw ([6]; intradermal injections of 1ng to 1µg epinephrine, dorsal surface of hindpaw): dose-dependent decrease

CC(C)NCC(O)COc1cccc2ccccc12 (centres unmarked) [propranolol]
effect on epinephrine-induced hyperalgesia [3]: significantly attenuated | effect on isoproterenol-induced hyperalgesia [8]: significantly attenuated | effect on epinephrine-induced potentiation of TTX-RINa (TTX-RINa; 1µM epinephrine): eliminated this potentiation

Rp-adenosine 3', 5'-cyclic monophosphate [Rp-cAMPs]
Percentage decrease in nociceptive threshold in response to epinephrine [3]: 13.9 ± 4.6 % | effect on epinephrine-induced potentiation of TTX-RINa (TTX-RINa; 1µM epinephrine): abolished | Percentage decrease in nociceptive threshold in response to PGE2 [4]: 3.1 ± 5.2 %
